Source: the supplement of paper PMC10307832

Experiments:
Assay in all cases: relative viability (nuclei count vs DMSO), 5 days (fraction); higher = more cells survive
GSK-J4 + Luminespib = compound: CCOC(=O)CCNc1cc(N2CCc3ccccc3CC2)nc(-c2ccccn2)n1 [GSK-J4] + CCNC(=O)c1noc(-c2cc(C(C)C)c(O)cc2O)c1-c1ccc(CN2CCOCC2)cc1 [Luminespib] (partner 0.01 µM)
In short: (§1)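 Relative viability was taken as the ratio of nuclei in treated wells to nuclei in vehicle wells. Lung cancer cell lines in 1536-well plates received compounds by pin tool one day after seeding, either one drug alone or a fixed anchor-drug dose plus five library-drug doses (not always all listed) in √10 steps. Nuclei were counted on 4× images after 5 days of treatment, and values are medians of duplicate plates.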

GSK-J4 + OSI-027 = compound: CCOC(=O)CCNc1cc(N2CCc3ccccc3CC2)nc(-c2ccccn2)n1 [GSK-J4] + COc1cccc2cc(-c3nc([C@H]4CC[C@H](C(=O)O)CC4)n4ncnc(N)c34)[nH]c12 [OSI-027] (partner 0.5 µM)
In short: as §1

GSK-J4 + Tozasertib = compound: CCOC(=O)CCNc1cc(N2CCc3ccccc3CC2)nc(-c2ccccn2)n1 [GSK-J4] + Cc1cc(Nc2cc(N3CCN(C)CC3)nc(Sc3ccc(NC(=O)C4CC4)cc3)n2)n[nH]1 [Tozasertib] (partner 0.1 µM)
In short: as §1

GSK-J4 + Dasatinib = compound: CCOC(=O)CCNc1cc(N2CCc3ccccc3CC2)nc(-c2ccccn2)n1 [GSK-J4] + Cc1nc(Nc2ncc(C(=O)Nc3c(C)cccc3Cl)s2)cc(N2CCN(CCO)CC2)n1 [Dasatinib] (partner 0.075 µM)
In short: as §1

AZ3146 + Phenformin = compound: CN1CCC(CC1)OC2=CC(=C(C=C2)NC3=NC=C4C(=N3)N(C(=O)N4C)C5CCCC5)OC [AZ3146] + N=C(N)NC(=N)NCCc1ccccc1 [Phenformin] (partner 250 µM)
In short: as §1

## UMC-11
GSK-J4 + Luminespib; first compound 0.5 µM
  relative viability: 0.996
GSK-J4 + Luminespib; first compound 5 µM
  relative viability: 1.03
GSK-J4 + Luminespib; first compound 15.81 µM
  relative viability: 0.971
GSK-J4 + Luminespib; first compound 50 µM
  relative viability: 0.259
GSK-J4 + OSI-027; first compound 0.5 µM
  relative viability: 0.474
GSK-J4 + OSI-027; first compound 5 µM
  relative viability: 0.362
GSK-J4 + OSI-027; first compound 15.81 µM
  relative viability: 0.423
GSK-J4 + OSI-027; first compound 50 µM
  relative viability: 0.34
GSK-J4 + Tozasertib; first compound 0.5 µM
  relative viability: 0.189
GSK-J4 + Tozasertib; first compound 15.81 µM
  relative viability: 0.176
GSK-J4 + Tozasertib; first compound 50 µM
  relative viability: 0.17
GSK-J4 + Dasatinib; first compound 0.5 µM
  relative viability: 0.43
GSK-J4 + Dasatinib; first compound 5 µM
  relative viability: 0.43
GSK-J4 + Dasatinib; first compound 15.81 µM
  relative viability: 0.392
GSK-J4 + Dasatinib; first compound 50 µM
  relative viability: 0.231
AZ3146 + Phenformin; first compound 0.08 µM
  relative viability: 0.299
AZ3146 + Phenformin; first compound 0.253 µM
  relative viability: 0.311
AZ3146 + Phenformin; first compound 0.8 µM
  relative viability: 0.345
AZ3146 + Phenformin; first compound 2.53 µM
  relative viability: 0.317
AZ3146 + Phenformin; first compound 8 µM
  relative viability: 0.263
